One block for each compound: values may come before it.
Key:
[1] = tested on: Summer wheat; experiment: Example C: Herbicidal post-emergence action, use of safeners (crop plant damage); type: in vivo; details: for Summer wheat observed (%), 10 days after application / Summer wheat observed (%), 28 days after application: greenhouse container trial; for Summer wheat observed (%): no safener;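 for Summer wheat observed (%), 10 days after application: 100% means plants died and 0% means like untreated controls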;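 for Summer wheat observed (%), 28 days after application: 100% means plants died and 0% means like untreated controls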
Protocol: (§1) Herbicidal Post-Emergence Action
(§2) Seeds of monocotylos and dicotylos weed and crop plants are placed into sandy lawn in wood fibre pots or in plastic pots, covered with soil and cultivated in a greenhouse, during the vegetation period also outdoors outside of the greenhouse, under good growth conditions. Two to three weeks after sowing, the test plants are treated at the one- to three-leaf stage. The test compounds, formulated as wettable powders (WP) or liquid (EC), are, in the various dosages at a water application rate of 300 l/ha (converted), with wetting agent (0.2 to 0.3%) added, sprayed onto the plants and the surface of the soil. […]
(§3) If it is additionally to be tested as to whether safeners can improve the plant compatibility of test substances in the case of crop plants, the following options are used for applying the safener: • seeds of the crop plants are, before sowing, dressed with safener substance (the amount of safener stated in percent, based on the weight of the seed) • before the application of the test substances, the crop plants are sprayed with the safener at a certain application rate per hectare (usually 1 day before the application of the test substances) • the safener is applied together with the test substance as a tank mix (the amount of safener is stated in g/ha or as a ratio, based on the herbicide).
(§4) By comparing the effect of test substances on crop plants without or with safener treatment, it is possible to assess the effect of the safener substance.
(§5) Container trials in the greenhouse, treatment with safener 1 day prior to herbicide application

[2] = tested on: Summer barley; experiment: as above; type: in vivo; details: for Summer barley observed (%): no safener; for Summer barley observed (%), 10 days after application / Summer barley observed (%), 28 days after application: greenhouse container trial;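 for Summer barley observed (%), 10 days after application: 100% means plants died and 0% means like untreated controls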;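 for Summer barley observed (%), 28 days after application: 100% means plants died and 0% means like untreated controls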
Protocol: as §1, §2, §3, §4, §5

[3] = tested on: green peach aphid (Myzus persicae); experiment: Example M: Myzus persicae test, activity increase by ammonium/phosphonium salts in combination with penetrants; type: in vivo; details: for Kill (%) after 6 d +AS 1000 ppm: + ammonium sulphate 1000 ppm; for Kill (%) after 6 d +RME 1000 ppm: + rapeseed oil methyl ester 1000 ppm; for Kill (%) after 6 d: no additive
Protocol: Activity Increase by Ammonia/Phosphonium Salts in Combination with Penetrants
(§6) Solvent: 7 parts by weight of dimethylformamide
(§7) Emulsifier: 2 parts by weight of alkylaryl polyglycol ether
(§8) To produce a suitable preparation of active compound, 1 part by weight of active compound is mixed with the stated amounts of solvent and emulsifier and the concentrate is diluted with emulsifier-containing water to the desired concentration. For the application with penetrants (rapeseed oil methyl ester 500 EW), ammonium or phosphonium salts or ammonium salts and penetrants (rapeseed oil methyl ester 500 EW), these are in each case added in a concentration of 1000 ppm to the spray liquor.
Paprika plants (Capsicum annuum) which are heavily infested by the green peach aphid (Myzus persicae) are treated by being sprayed to run off point with the preparation of active compound at the desired concentration.
After the desired period of time, the kill in % is determined. 100% means that all animals have been killed; 0% means that none of the animals have been killed.
(§9) In this test, for example, the following compounds of the Preparation Examples show good efficacy: see table

[4] = tested on: cotton aphid (Aphis gossypii); experiment: Example N: Aphis gossypii test, with ammonium/phosphonium salts and penetrants; type: in vivo; details: 20 ppm
Protocol: as §6, §7, §8
Cotton plants (Gossypium hirsutum) which are heavily infested by the cotton aphid (Aphis gossypii) are treated by being sprayed to run off point with the preparation of active compound at the desired concentration.
After the desired period of time, the kill in % is determined. 100% means that all aphids have been killed; 0% means that none of the aphids have been killed.
as §9

[5] = logP determination by HPLC on a reverse-phase column (C 18), EEC Directive 79/831 Annex V.A8; type: physicochemical; details: HPLC reverse-phase C 18, 43° C., acidic range (pH 2.3), 0.1% aqueous phosphoric acid/acetonitrile; for chromatographic logP: reverse-phase HPLC column (C 18)
Protocol: The logP values given in the table were determined in accordance with EEC Directive 79/831 Annex V.A8 by HPLC (High Performance Liquid Chromatography) on a reverse-phase column (C 18). Temperature: 43° C.
Mobile phases for the determination in the acidic range (pH 2.3): 0.1% aqueous phosphoric acid, acetonitrile; linear gradient from 10% acetonitrile to 90% acetonitrile.
Calibration was carried out using unbranched alkan-2-ones (having 3 to 16 carbon atoms) with known logP values (determination of the logP values by retention times using linear interpolation between two successive alkanones).

[6] = From the text: Use was made of leaves which, fully developed, were cut from apple trees of the cultivar golden delicious.
Only the cuticles, free from hairs and stoma, of the upper sides of the leaves were then used. They were washed repeatedly alternating with water and a buffer solution of pH 7. The clean cuticles obtained were then mounted on Teflon plates and smoothed and dried with a gentle stream of air.
In the next step, the cuticle membranes obtained in this manner were placed into stainless steel diffusion cells (=transport chambers) for membrane transport studies. […] The arrangement was chosen such that the morphological outside of the cuticles was facing outwards, i.e. exposed to air, whereas the original inside was facing the interior of the diffusion cells.
The diffusion cells were filled with a 30% strength ethylene glycol/water solution. To determine the penetration, in each case 10 μl of the spray liquor of the composition below were applied to the outside of the cuticles. The spray liquor was prepared using local tap water of medium hardness.
After the spray liquors had been applied, the water was allowed to evaporate and the chambers were inverted and placed into thermostated taps in which temperature and atmospheric humidity over the cuticles could be adjusted using a gentle stream of air onto the cuticles with the spray coating (20° C., 60% rh).

[7] = 10 days after application, 12.5 g of a.i./ha
[8] = 10 days after application, 25 g of a.i./ha
[9] = 10 days after application, 50 g of a.i./ha
[10] = 28 days after application, 12.5 g of a.i./ha
[11] = 28 days after application, 25 g of a.i./ha
[12] = 28 days after application, 50 g of a.i./ha
[13] = 28 days after application, 100 g of a.i./ha
[14] = 10 days after application, 100 g of a.i./ha

SMILES: CCCCOC1CCCC2(C1)NC(=O)C(c1c(Cl)cc(C)cc1C1CC1)=C2O (stereo not shown) [Example I-1-a-12]
Summer wheat observed (%), 10 days after application ([1]; 6.25 g of a.i./ha): 10%
Summer wheat observed (%), 10 days after application ([1]; 12.5 g of a.i./ha): 40%
Summer wheat observed (%), 10 days after application ([1]; 25 g of a.i./ha): 50%
Summer wheat observed (%) ([1]; 10 days after application, 6.25 g of a.i./ha): 30%
Summer wheat observed (%) [1, 7]: 50%
Summer wheat observed (%) [1, 8]: 60%
Summer wheat observed (%) [1, 9]: 60%
Summer wheat observed (%) ([1]; 28 days after application, 6.25 g of a.i./ha): 5%
Summer wheat observed (%) [1, 10]: 25%
Summer wheat observed (%) [1, 11]: 65%
Summer wheat observed (%) [1, 12]: 65%

SMILES: CCOC(=O)OC1=C(c2c(C3CC3)cc(C)cc2C2CC2)C(=O)NC1(C)C [Example I-1-c-13]
Summer barley observed (%) [2, 7]: 5%
Summer barley observed (%) [2, 8]: 20%
Summer barley observed (%) [2, 9]: 30%
Summer wheat observed (%) [1, 7]: 20%
Summer wheat observed (%) [1, 8]: 30%
Summer wheat observed (%) [1, 9]: 40%

SMILES: COC1CCC2(CC1)NC(=O)C(c1c(C3CC3)cc(C)cc1C1CC1)=C2O (stereo not shown) [Example I-1-a-15]
Kill (%) after 6 d +AS + RME in each case 1000 ppm ([3]; 4 ppm): 95%
Kill (%) after 6 d +AS 1000 ppm ([3]; 4 ppm): 15%
Kill (%) after 6 d +RME 1000 ppm ([3]; 4 ppm): 55%
Kill (%) after 6 d ([3]; 4 ppm): 5%
Kill (%) after 6 d +AS + RME in each case 1000 ppm ([3]; 20 ppm): 98%
Kill (%) after 6 d +AS 1000 ppm ([3]; 20 ppm): 95%
Kill (%) after 6 d +RME 1000 ppm ([3]; 20 ppm): 95%
Kill (%) after 6 d ([3]; 20 ppm): 95%

SMILES: COC1CCC2(CC1)NC(=O)C(c1c(C)cc(C)cc1C1CC1)=C2O (stereo not shown) [Example I-1-a-7]
Kill (%) after 6 d +AS + RME in each case 1000 ppm ([4]; + AS + RME in each case 1000 ppm): 99%
Kill (%) after 6 d +AS 1000 ppm ([4]; + ammonium sulphate 1000 ppm): 65%
Kill (%) after 6 d +RME 1000 ppm ([4]; + rapeseed oil methyl ester 1000 ppm): 75%
Kill (%) after 6 d ([4]; no additive): 55%
Summer barley observed (%) [2, 7]: 10%
Summer barley observed (%) [2, 8]: 50%
Summer barley observed (%) [2, 9]: 60%
Summer wheat observed (%) [1, 10]: 30%
Summer wheat observed (%) [1, 11]: 60%
Summer wheat observed (%) [1, 12]: 70%
Summer wheat observed (%) [1, 13]: 80%

chromatographic logP [5]: 3.07
SMILES: CCc1cc(C)cc(C2CC2)c1C1=C(O)[C@]2(CC[C@@H](OC)CC2)OC1=O [Example I-2-a-2]

chromatographic logP [5]: 5.03
SMILES: CCc1cc(C)cc(C2CC2)c1C1=C(OC(=O)C(C)(C)C)[C@]2(CC[C@H](OC)CC2)OC1=O [Example I-2-b-1]

SMILES: CCc1cc(C)cc(C2CC2)c1C1=C(O)C(C)(C)NC1=O [Example I-1-a-5]
Summer barley observed (%), 10 days after application ([2]; 12.5 g of a.i./ha): 50%
Summer barley observed (%), 28 days after application ([2]; 12.5 g of a.i./ha): 15%
Summer barley observed (%), 10 days after application ([2]; 25 g of a.i./ha): 70%
Summer barley observed (%), 28 days after application ([2]; 25 g of a.i./ha): 25%
Summer barley observed (%), 10 days after application ([2]; 50 g of a.i./ha): 80%
Summer barley observed (%), 28 days after application ([2]; 50 g of a.i./ha): 40%
Summer wheat observed (%), 10 days after application ([1]; 6.25 g of a.i./ha): 50%
Summer wheat observed (%), 28 days after application ([1]; 6.25 g of a.i./ha): 10%
Summer wheat observed (%), 10 days after application ([1]; 12.5 g of a.i./ha): 60%
Summer wheat observed (%), 28 days after application ([1]; 12.5 g of a.i./ha): 40%
Summer wheat observed (%), 10 days after application ([1]; 25 g of a.i./ha): 70%
Summer wheat observed (%), 28 days after application ([1]; 25 g of a.i./ha): 60%
Summer wheat observed (%), 10 days after application ([1]; 50 g of a.i./ha): 70%
Summer wheat observed (%), 28 days after application ([1]; 50 g of a.i./ha): 75%

chromatographic logP [5]: 5.15
SMILES: CCOC(=O)C1(OC(=O)Cc2c(CC)cc(C)cc2C2CC2)CCC(OC)CC1 (stereo not shown) [III-1]

SMILES: CCOC(=O)OC1=C(c2c(C)cc(C)cc2C2CC2)C(=O)NC12CCC(OC)CC2 (single isomer, unassigned) [Example I-1-c-7]
Summer barley observed (%) [2, 7]: 10%
Summer barley observed (%) [2, 8]: 40%
Summer barley observed (%) [2, 9]: 60%
Summer barley observed (%) [2, 14]: 90%
Summer barley observed (%) [2, 12]: 50%
Summer barley observed (%) [2, 13]: 95%
Summer wheat observed (%) [1, 7]: 20%
Summer wheat observed (%) [1, 8]: 60%
Summer wheat observed (%) [1, 10]: 10%
Summer wheat observed (%) [1, 11]: 20%
Summer wheat observed (%) [1, 12]: 80%

SMILES: CCOC1CCCC2(CC1)NC(=O)C(c1c(C)cc(C)cc1C1CC1)=C2O (stereo not shown) [Example I-1-a-9]
Summer wheat observed (%) [1, 7]: 60%
Summer wheat observed (%) [1, 8]: 65%
Summer wheat observed (%) [1, 11]: 50%

logP [5]: 2.64
SMILES: COC1CCC2(CC1)OC(=O)C(c1c(C)cc(C3CC3)cc1C)=C2O (single isomer, unassigned) [Example I-2-a-3]

chromatographic logP [5]: 2.81
SMILES: CCc1cc(C)cc(C2CC2)c1C1=C(O)[C@]2(CC[C@H](OC)CC2)OC1=O [Example I-2-a-1]

SMILES: CCOC1CCCC2(C1)NC(=O)C(c1c(Cl)cc(C)cc1C1CC1)=C2O (stereo not shown) [Example I-1-a-14]
Summer barley observed (%) [2, 10]: 20%
Summer barley observed (%) [2, 11]: 60%
Summer barley observed (%) [2, 12]: 70%
Summer wheat observed (%) [1, 10]: 20%
Summer wheat observed (%) [1, 11]: 50%
Summer wheat observed (%) [1, 12]: 75%
Summer wheat observed (%) [1, 13]: 85%

SMILES: CCc1cc(C)cc(C2CC2)c1C1=C(O)C2CCCN2C1=O (stereo not shown) [Example I-1-a-18]
Summer barley observed (%) [2, 7]: 10%
Summer barley observed (%) [2, 8]: 15%
Summer barley observed (%) [2, 9]: 25%
Summer barley observed (%) [2, 14]: 35%
Summer barley observed (%) [2, 12]: 10%
Summer barley observed (%) [2, 13]: 20%
Summer wheat observed (%), 10 days after application ([1]; 12.5 g of a.i./ha): 10%
Summer wheat observed (%), 10 days after application ([1]; 25 g of a.i./ha): 15%
Summer wheat observed (%), 10 days after application ([1]; 50 g of a.i./ha): 25%
Summer wheat observed (%), 10 days after application ([1]; 100 g of a.i./ha): 40%

SMILES: Cc1cc(C)c(C2=C(O)C(C)(C)NC2=O)c(C2CC2)c1 [Example I-1-a-8]
Summer wheat observed (%) [1, 8]: 25%
Summer wheat observed (%) [1, 9]: 30%
Summer wheat observed (%) [1, 14]: 30%

logP [5]: 2.88
SMILES: COC1CCC2(CC1)OC(=O)C(c1c(C)cc(C3CC3)cc1C)=C2O (single isomer, unassigned) [Example I-2-a-4]

Penetration after 24 h/% a.i. + AS (1 g/l) [6]: 1.1%
Penetration after 24 h/% a.i. + RME (1 g/l) [6]: 35.6%
Penetration after 24 h/% a.i. + RME (1 g/l) + AS (1 g/l) [6]: 56.9%
SMILES: CCc1cc(C2CC2)cc(C2CC2)c1C1=C(O)C(C)(C)NC1=O [Example I-1-a-21]

logP [5]: 2.36
SMILES: Cc1cc(C2CC2)cc(C)c1C1=C(O)C2(CCOCC2)OC1=O [Example I-2-a-5]

Source: US8541617B2, “Cycloalkylphenyl substituted cyclic ketoenols” (Bayer Cropscience AG, priority 2006, dated 2013)
